From patent US12538924B2, “Pesticidally active heterocyclic derivatives with sulfur containing substituents” (SYNGENTA CROP PROTECTION AG, priority 2019, dated 2026)

Experiments:
Assay type in all cases: in vivo
[1] = test system: Euschistus heros (Neotropical Brown Stink Bug); experiment: Euschistus heros (Neotropical Brown Stink Bug), sprayed soybean leaves; details: 120 h, application rate of 200 ppm, N2 nymphs on sprayed soybean leaves, 5 days after infestation, read-out: effect in at least one of the two categories (mortality or growth inhibition)
Experimental: Example B3: Euschistus heros (Neotropical Brown Stink Bug)
Soybean leaves on agar in 24-well microtiter plates were sprayed with aqueous test solutions prepared from 10'000 ppm DMSO stock solutions. After drying the leaves were infested with N2 nymphs. The samples were assessed for mortality and growth inhibition in comparison to untreated samples 5 days after infestation.

[2] = test system: Spodoptera littoralis (Egyptian Cotton Leaf Worm); experiment: Spodoptera littoralis (Egyptian Cotton Leaf Worm), sprayed cotton leaf discs; details: foliar, 72 h, application rate of 200 ppm, L1 larvae on sprayed cotton leaf discs, 3 days after infestation, read-out: control (mortality, anti-feeding effect or growth inhibition)
Experimental: Example B8: Spodoptera littoralis (Egyptian Cotton Leaf Worm)
Cotton leaf discs were placed onto agar in 24-well microtiter plates and sprayed with aqueous test solutions prepared from 10'000 ppm DMSO stock solutions. After drying the leaf discs were infested with five L1 larvae. The samples were assessed for mortality, anti-feeding effect, and growth inhibition in comparison to untreated samples 3 days after infestation. Control of Spodoptera littoralis by a test sample is given when at least one of the categories mortality, anti-feedant effect, and growth inhibition is higher than the untreated sample.

[3] = test system: Diabrotica Balteata (Corn Root Worm); experiment: Diabrotica balteata (Corn Root Worm), sprayed maize sprouts; details: 96 h, application rate of 200 ppm, L2 larvae on sprayed maize sprouts, 4 days after infestation, read-out: effect in at least one of the two categories (mortality or growth inhibition)
Experimental: Example B2: Diabrotica Balteata (Corn Root Worm)
Maize sprouts placed onto an agar layer in 24-well microtiter plates were treated with aqueous test solutions prepared from 10'000 ppm DMSO stock solutions by spraying. After drying, the plates were infested with L2 larvae (6 to 10 per well). The samples were assessed for mortality and growth inhibition in comparison to untreated samples 4 days after infestation.

[4] = test system: Myzus persicae (Green Peach Aphid); experiment: Myzus persicae (Green Peach Aphid): Systemic Activity; details: 144 h, test rate of 24 ppm, roots of infested pea seedlings placed into test solutions, 6 days
Experimental: Example B7: Myzus persicae (Green Peach Aphid): Systemic Activity
Roots of pea seedlings infested with an aphid population of mixed ages were placed directly into aqueous test solutions prepared from 10'000 DMSO stock solutions. The samples were assessed for mortality 6 days after placing seedlings into test solutions.

[5] = test system: Nilaparvata lugens (Brown Plant Hopper); experiment: Nilaparvata lugens (Brown Plant Hopper): Larvicide, Feeding/Contact; details: 168 h, application rate of 50 ppm, N3 nymphs on sprayed rice plants, 7 days after the treatment
Experimental: Example B10: Nilaparvata lugens (Brown Plant Hopper): Larvicide, Feeding/Contact
Rice plants were treated with the diluted test solutions in a spray chamber. After drying plants were infested with ˜20 N3 nymphs. 7 days after the treatment samples were assessed for mortality and growth regulation.

[6] = test system: Plutella xylostella (Diamond Back Moth); experiment: Plutella xylostella (Diamond Back Moth), treated artificial diet; details: 192 h, application rate of 200 ppm, eggs on treated artificial diet, 8 days after infestation, read-out: effect in at least one of the two categories (mortality or growth inhibition)
Experimental: Example B5: Plutella xylostella (Diamond Back Moth)
24-well microtiter plates with artificial diet were treated with aqueous test solutions prepared from 10'000 ppm DMSO stock solutions by pipetting. After drying, Plutella eggs were pipetted through a plastic stencil onto a gel blotting paper and the plate was closed with it. The samples were assessed for mortality and growth inhibition in comparison to untreated samples 8 days after infestation.

[7] = test system: Frankliniella occidentalis (Western Flower Thrips); experiment: Frankliniella occidentalis (Western Flower Thrips): Feeding/Contact Activity; details: foliar, 168 h, application rate of 200 ppm, population of mixed ages on sprayed sunflower leaf discs, 7 days after infestation
Experimental: Example B4: Frankliniella occidentalis (Western Flower Thrips): Feeding/Contact Activity
Sunflower leaf discs were placed on agar in 24-well microtiter plates and sprayed with aqueous test solutions prepared from 10'000 DMSO stock solutions. After drying the leaf discs were infested with a Frankliniella population of mixed ages. The samples were assessed for mortality 7 days after infestation.

[8] = test system: Nilaparvata lugens (Brown Plant Hopper); experiment: Nilaparvata lugens (Brown Plant Hopper): Igr, Feeding/Contact; details: 360 h, application rate of 50 ppm, sprayed rice plants, N3 nymphs, assessed for effect on F1 generation 15 days after the treatment
Experimental: Example B11: Nilaparvata lugens (Brown Plant Hopper): Igr, Feeding/Contact
Rice plants were treated with the diluted test solutions in a spray chamber. After drying plants were infested with ˜20 N3 nymphs. 7 days after treatment adults were removed and 15 days after the treatment samples were assessed for effect on F1 generation.

[9] = test system: Nilaparvata lugens (Brown Plant Hopper); experiment: Nilaparvata lugens (Brown Plant Hopper): Larvicide, Systemic into Water; details: 168 h, test rate of 12.5 ppm, rice plants in nutritive solution, N3 nymphs, 7 days after infestation
Experimental: Example B12: Nilaparvata lugens (Brown Plant Hopper): Larvicide, Systemic into Water
Rice plants cultivated in a nutritive solution were treated with the diluted test solutions into nourishing cultivation system. 1 day after application plants were infested with ˜20 N3 nymphs. 7 days after infestation samples were assessed for mortality and growth regulation.

[10] = test system: Myzus persicae (Green Peach Aphid); experiment: Myzus persicae (Green Peach Aphid): Feeding/Contact Activity; details: foliar, 144 h, application rate of 200 ppm, aphid population of mixed ages on sprayed sunflower leaf discs, 6 days after infestation
Experimental: Example B6: Myzus persicae (Green Peach Aphid): Feeding/Contact Activity
Sunflower leaf discs were placed onto agar in a 24-well microtiter plate and sprayed with aqueous test solutions prepared from 10'000 ppm DMSO stock solutions. After drying, the leaf discs were infested with an aphid population of mixed ages. The samples were assessed for mortality 6 days after infestation.

[11] = test system: Bemisia tabaci (Cotton White Fly); experiment: Bemisia tabaci (Cotton White Fly): Feeding/Contact Activity; details: foliar, 144 h, application rate of 200 ppm, adult white flies on sprayed cotton leaf discs, 6 days after incubation
Experimental: Example B1: Bemisia tabaci (Cotton White Fly): Feeding/Contact Activity
Cotton leaf discs were placed on agar in 24-well microtiter plates and sprayed with aqueous test solutions prepared from 10'000 ppm DMSO stock solutions. After drying the leaf discs were infested with adult white flies. The samples were checked for mortality 6 days after incubation.

[12] = test system: Tetranychus urticae (Two-Spotted Spider Mite); experiment: Tetranychus urticae (Two-Spotted Spider Mite): Feeding/Contact Activity; details: foliar, 192 h
Experimental: Example B9: Tetranychus urticae (Two-Spotted Spider Mite): Feeding/Contact Activity
Bean leaf discs on agar in 24-well microtiter plates were sprayed with aqueous test solutions prepared from 10'000 ppm DMSO stock solutions. After drying the leaf discs were infested with a mite population of mixed ages. The samples were assessed for mortality on mixed population (mobile stages) 8 days after infestation.

CCS(=O)(=O)c1cc(N(C)C(C)=O)cnc1N1Cc2cnc(C(F)(F)F)cc2C1=O [Compound P3, N-[5-ethylsulfonyl-6-[1-oxo-6-(trifluoromethyl)-3H-pyrrolo[3,4-c]pyridin-2-yl]-3-pyridyl]-N-methyl-acetamide]
≥ 80%: percent effect (mortality or growth inhibition) at 200 ppm [1] | percent control (mortality, anti-feedant effect or growth inhibition) at 200 ppm [2] | percent effect (mortality or growth inhibition) at 200 ppm [3] | mortality at 24 ppm [4] | mortality at 50 ppm [5] | percent effect (mortality or growth inhibition) at 200 ppm [6] | mortality at 200 ppm [7] | mortality at 50 ppm [8] | mortality at 12.5 ppm [9] | mortality at 200 ppm [10]

CCS(=O)(=O)c1cc(C2(C#N)CC2)cnc1N1Cc2cnc(C(F)(F)F)cc2C1=O [Compound P8, 1-[5-ethylsulfonyl-6-[1-oxo-6-(trifluoromethyl)-3H-pyrrolo[3,4-c]pyridin-2-yl]-3-pyridyl]cyclopropanecarbonitrile]
≥ 80%: percent effect (mortality or growth inhibition) at 200 ppm [1] | percent control (mortality, anti-feedant effect or growth inhibition) at 200 ppm [2] | mortality at 200 ppm [11] | percent effect (mortality or growth inhibition) at 200 ppm [3] | mortality at 24 ppm [4] | mortality at 50 ppm [5] | percent effect (mortality or growth inhibition) at 200 ppm [6] | mortality at 200 ppm [7] | mortality at 50 ppm [8] | mortality at 12.5 ppm [9] | mortality at 200 ppm [10]

N#CC1(c2cnc(N3Cc4cnc(C(F)(F)F)cc4C3=O)c(S(=O)(=O)CC3CC3)c2)CC1 [Compound P28, 1-[5-(cyclopropylmethylsulfonyl)-6-[1-oxo-6-(trifluoromethyl)-3H-pyrrolo[3,4-c]pyridin-2-yl]-3-pyridyl]cyclopropanecarbonitrile]
≥ 80%: percent effect (mortality or growth inhibition) at 200 ppm [1] | percent control (mortality, anti-feedant effect or growth inhibition) at 200 ppm [2] | mortality at 200 ppm [11] | percent effect (mortality or growth inhibition) at 200 ppm [3] | percent effect (mortality or growth inhibition) at 200 ppm [6] | mortality at 200 ppm [12] | mortality at 200 ppm [10]
